The test system of data set [1] is Serotonin receptor, dopamine receptor, biogenic amine transporters. As to the kind of experiment: side effect profiling panel binding. Particulars: up to 10 μM, except the targets listed.
Data set [2] concerns male Swiss Webster mice. Briefly: warm-water tail immersion assay, antagonism of morphine's antinociception. In kind it is in vivo, mouse. Particulars: for Tail flick assay (dose response) AD50: 95% CL. As for the experimental part:
Following this single dose assessment, in vivo dose-response studies with eight identified antagonists were conducted.
Antinociceptive effect of synthesized compounds was determined using the warm-water tail immersion assay. Swiss Webster mice (six male mice for each group, 25-35 g, 6-8 weeks old) were used in this assay. Antinociception for all compounds was examined in male Swiss Webster mice. […] To prevent tissue damage, a 10 s maximum cutoff time was imposed. Antinociceptive response was calculated as the percentage of maximum possible effect (% MPE), where % MPE=[(test−control latency)/(10−control latency)]×100.
(§1) Warm-water tail immersion assay is a well-established assay for evaluating opioid analgesics, especially MOR agonists. […] In this context, all 24 compounds were first evaluated for their acute antinociception tail-withdrawal assay (FIG. 5A).
(§2) The tail-withdrawal test was performed using a water bath with the temperature maintained at 56±0.1° C. Baseline latency was measured before any injections. Each mouse was gently wrapped in a cloth with only the tail exposed. The distal one-third of the tail was immersed perpendicularly in water, and the mouse rapidly flicked the tail from the bath was seen as the first sign of discomfort. The duration of time the tail remained in the water bath was counted as the baseline latency. Untreated mice with baseline latency reaction times ranging from 2 to 4 seconds were used. Test latency was obtained 20 min later after each injection. A 10-second maximum cutoff latency was used to prevent any tissue damage. Antinociception was quantified as the percentage of maximal possible effect (% MPE), which was calculated as % MPE=[(test latency−control latency)/(10−control latency)]×100. The % MPE value was calculated for each mouse using 6 mice per group. Testing compounds were given 10 mg/kg (s.c.) to each mouse.
(In hot-plate and tail-flick tests a longer latency is read as antinociception.)

A further data set deals with T1, hM1 (Homo sapiens, UniProt P11229).
T1 sequence (P11229 1-460): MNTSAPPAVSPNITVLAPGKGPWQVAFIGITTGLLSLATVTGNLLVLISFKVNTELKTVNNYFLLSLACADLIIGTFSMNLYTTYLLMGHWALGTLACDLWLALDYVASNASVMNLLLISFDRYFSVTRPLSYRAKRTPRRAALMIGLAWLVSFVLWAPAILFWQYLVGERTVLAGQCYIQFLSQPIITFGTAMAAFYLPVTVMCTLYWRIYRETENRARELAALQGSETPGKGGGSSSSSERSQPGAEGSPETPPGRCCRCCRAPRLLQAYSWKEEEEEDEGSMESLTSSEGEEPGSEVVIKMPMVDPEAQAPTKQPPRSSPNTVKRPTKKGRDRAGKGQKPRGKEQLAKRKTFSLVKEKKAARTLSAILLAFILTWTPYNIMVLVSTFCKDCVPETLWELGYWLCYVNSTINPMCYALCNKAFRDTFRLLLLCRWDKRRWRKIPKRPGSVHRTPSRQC
As to the kind of experiment: side effect profiling, hM1. In kind it is binding. Particulars: for hM1 binding: at 10 uM.

Another data set has as its target hERG channel (Homo sapiens, UniProt Q12809). Briefly: hERG channel testing. (In general: The hERG channel carries a current that helps repolarise heart muscle cells.)
Another data set deals with MOR (Mus musculus, UniProt P42866). Particulars: read-out: Binding Affinity Ki (nM) ± SEM, MOR; Tables A, B.
Sequence of MOR (P42866 whole entry): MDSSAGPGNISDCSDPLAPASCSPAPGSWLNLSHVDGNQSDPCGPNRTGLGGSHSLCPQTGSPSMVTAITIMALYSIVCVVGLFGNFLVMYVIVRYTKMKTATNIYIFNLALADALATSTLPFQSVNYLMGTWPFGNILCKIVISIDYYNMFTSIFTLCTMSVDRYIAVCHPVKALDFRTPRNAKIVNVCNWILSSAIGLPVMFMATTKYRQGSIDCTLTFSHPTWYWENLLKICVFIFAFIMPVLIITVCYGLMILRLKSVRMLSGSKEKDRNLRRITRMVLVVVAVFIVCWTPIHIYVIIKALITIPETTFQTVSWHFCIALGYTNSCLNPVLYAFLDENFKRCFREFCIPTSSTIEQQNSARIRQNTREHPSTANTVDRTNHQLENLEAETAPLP
Another data set deals with T2, DOR (Homo sapiens, UniProt P41143).
T2 construct: expressed in transfected cells; host or cells: CHO
As to the kind of experiment: competitive radioligand binding assay, DOR ([3H]diprenorphine, CHO cell membranes). Particulars: Tables A, B; read-out: Binding Affinity Ki (nM) ± SEM, DOR.

A further data set in a line: Caco-2 permeability. Particulars: human, Caco-2, pH 7.4. For orientation: Passage across Caco-2 layers is used to estimate intestinal permeability.
In another data set the target is T3, hM2 (Homo sapiens, UniProt P08172).
T3 sequence (P08172 1-466): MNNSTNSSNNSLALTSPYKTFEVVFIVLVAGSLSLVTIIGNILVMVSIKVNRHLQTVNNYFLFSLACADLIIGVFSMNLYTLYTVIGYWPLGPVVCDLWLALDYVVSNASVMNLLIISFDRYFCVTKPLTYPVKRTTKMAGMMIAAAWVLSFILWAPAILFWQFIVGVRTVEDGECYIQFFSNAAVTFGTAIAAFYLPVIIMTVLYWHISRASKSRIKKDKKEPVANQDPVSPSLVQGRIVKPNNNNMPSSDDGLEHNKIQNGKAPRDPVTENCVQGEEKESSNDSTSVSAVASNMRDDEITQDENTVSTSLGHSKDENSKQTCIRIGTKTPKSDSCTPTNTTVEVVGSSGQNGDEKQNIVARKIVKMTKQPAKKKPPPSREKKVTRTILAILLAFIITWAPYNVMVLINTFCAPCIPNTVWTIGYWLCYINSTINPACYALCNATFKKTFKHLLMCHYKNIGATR
As to the kind of experiment: side effect profiling, hM2. Particulars: for hM2 binding: at 10 uM. It is filed as binding.

Another data set addresses hNK3 (Homo sapiens, UniProt P29371). Briefly: side effect profiling, hNK3. In kind it is binding.
The subject of data set [3] is male Swiss Webster mice. Briefly: warm-water tail immersion (tail flick / tail-withdrawal) assay, antinociception. Particulars: mice. In kind it is in vivo, mouse. As to the method: In this assay, the duration for which mice kept their tails in the warm water was recorded.
All thirty-six compounds' antinociception were examined in tail immersion assay first to preclude any opioid receptor agonists.
Swiss Webster mice (six male mice for each group, 25-35 g, 6-8 weeks old) were used in this assay. Antinociception for all compounds was examined in male Swiss Webster mice. […] To prevent tissue damage, a 10 s maximum cutoff time was imposed. Antinociceptive response was calculated as the percentage of maximum possible effect (% MPE), where % MPE=[(test−control latency)/(10−control latency)]×100.
as §1, §2

Data set [4] in a line: In vivo Bioavailability Foral. Particulars: po.
The target of a further data set is T4, MOR-CHO cells (Mus musculus, UniProt P42866).
T4 construct: expressed in transfected cells; host or cells: CHO
T4 sequence (P42866 whole entry): as the sequence (P42866 whole entry) above
Briefly: Calcium flux on MOR-CHO cells, acting as antagonists against DAMGO. It is filed as cell-based.

A further data set concerns the target hNOP (Homo sapiens, UniProt P41146). As to the kind of experiment: side effect profiling, hNOP. It is filed as binding. Particulars: for hNOP binding: at 10 uM.
The next data set addresses Potassium channel hERG (Homo sapiens, UniProt Q12809). Briefly: side effect profiling, hERG channel. Particulars: for hERG channel binding: at 10 uM.
Another data set has as its target h5-HT1b (Homo sapiens, UniProt P28222). As to the kind of experiment: side effect profiling, h5-HT1b. It is filed as binding. Particulars: for h5-HT1b binding: at 10 uM.
For another data set, the target named is hNK1 (Homo sapiens, UniProt P25103). As to the kind of experiment: side effect profiling, hNK1. It is filed as binding. Particulars: at 10 uM.
Sequence of hNK1 (P25103 whole entry): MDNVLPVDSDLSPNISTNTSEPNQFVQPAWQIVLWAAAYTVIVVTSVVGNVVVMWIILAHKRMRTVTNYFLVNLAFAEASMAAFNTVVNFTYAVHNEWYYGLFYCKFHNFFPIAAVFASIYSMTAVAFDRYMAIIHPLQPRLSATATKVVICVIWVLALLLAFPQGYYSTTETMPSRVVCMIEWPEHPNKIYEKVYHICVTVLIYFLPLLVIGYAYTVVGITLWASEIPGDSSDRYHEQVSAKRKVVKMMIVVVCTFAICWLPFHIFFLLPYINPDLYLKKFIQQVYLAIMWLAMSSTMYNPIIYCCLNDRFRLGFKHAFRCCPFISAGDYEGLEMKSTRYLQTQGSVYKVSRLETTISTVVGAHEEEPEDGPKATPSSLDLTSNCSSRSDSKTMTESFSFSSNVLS

Structures are written as SMILES. Counter-ions that a name gives are not always drawn.

Sequence of h5-HT1b (P28222 whole entry): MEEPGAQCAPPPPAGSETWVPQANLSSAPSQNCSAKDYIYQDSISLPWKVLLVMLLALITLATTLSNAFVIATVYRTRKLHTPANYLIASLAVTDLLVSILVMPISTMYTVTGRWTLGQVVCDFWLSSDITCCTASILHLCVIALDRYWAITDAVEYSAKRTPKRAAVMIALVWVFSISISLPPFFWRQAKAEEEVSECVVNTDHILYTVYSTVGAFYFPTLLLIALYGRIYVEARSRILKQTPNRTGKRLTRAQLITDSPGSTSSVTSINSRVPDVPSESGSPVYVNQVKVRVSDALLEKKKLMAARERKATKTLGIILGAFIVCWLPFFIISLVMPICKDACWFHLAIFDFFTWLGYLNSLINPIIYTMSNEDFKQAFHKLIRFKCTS
Sequence of hNOP (P41146 whole entry): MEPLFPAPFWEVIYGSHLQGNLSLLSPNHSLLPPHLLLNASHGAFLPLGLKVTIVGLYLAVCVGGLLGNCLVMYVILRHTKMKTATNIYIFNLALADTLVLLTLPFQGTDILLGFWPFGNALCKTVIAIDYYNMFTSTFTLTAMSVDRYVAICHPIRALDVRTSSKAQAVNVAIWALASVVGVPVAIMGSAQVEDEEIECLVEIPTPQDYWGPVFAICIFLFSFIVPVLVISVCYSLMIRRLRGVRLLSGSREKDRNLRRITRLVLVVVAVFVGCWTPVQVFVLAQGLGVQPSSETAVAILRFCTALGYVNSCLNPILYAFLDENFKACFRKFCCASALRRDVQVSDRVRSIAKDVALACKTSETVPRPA
Sequence of Potassium channel hERG (Q12809 whole entry): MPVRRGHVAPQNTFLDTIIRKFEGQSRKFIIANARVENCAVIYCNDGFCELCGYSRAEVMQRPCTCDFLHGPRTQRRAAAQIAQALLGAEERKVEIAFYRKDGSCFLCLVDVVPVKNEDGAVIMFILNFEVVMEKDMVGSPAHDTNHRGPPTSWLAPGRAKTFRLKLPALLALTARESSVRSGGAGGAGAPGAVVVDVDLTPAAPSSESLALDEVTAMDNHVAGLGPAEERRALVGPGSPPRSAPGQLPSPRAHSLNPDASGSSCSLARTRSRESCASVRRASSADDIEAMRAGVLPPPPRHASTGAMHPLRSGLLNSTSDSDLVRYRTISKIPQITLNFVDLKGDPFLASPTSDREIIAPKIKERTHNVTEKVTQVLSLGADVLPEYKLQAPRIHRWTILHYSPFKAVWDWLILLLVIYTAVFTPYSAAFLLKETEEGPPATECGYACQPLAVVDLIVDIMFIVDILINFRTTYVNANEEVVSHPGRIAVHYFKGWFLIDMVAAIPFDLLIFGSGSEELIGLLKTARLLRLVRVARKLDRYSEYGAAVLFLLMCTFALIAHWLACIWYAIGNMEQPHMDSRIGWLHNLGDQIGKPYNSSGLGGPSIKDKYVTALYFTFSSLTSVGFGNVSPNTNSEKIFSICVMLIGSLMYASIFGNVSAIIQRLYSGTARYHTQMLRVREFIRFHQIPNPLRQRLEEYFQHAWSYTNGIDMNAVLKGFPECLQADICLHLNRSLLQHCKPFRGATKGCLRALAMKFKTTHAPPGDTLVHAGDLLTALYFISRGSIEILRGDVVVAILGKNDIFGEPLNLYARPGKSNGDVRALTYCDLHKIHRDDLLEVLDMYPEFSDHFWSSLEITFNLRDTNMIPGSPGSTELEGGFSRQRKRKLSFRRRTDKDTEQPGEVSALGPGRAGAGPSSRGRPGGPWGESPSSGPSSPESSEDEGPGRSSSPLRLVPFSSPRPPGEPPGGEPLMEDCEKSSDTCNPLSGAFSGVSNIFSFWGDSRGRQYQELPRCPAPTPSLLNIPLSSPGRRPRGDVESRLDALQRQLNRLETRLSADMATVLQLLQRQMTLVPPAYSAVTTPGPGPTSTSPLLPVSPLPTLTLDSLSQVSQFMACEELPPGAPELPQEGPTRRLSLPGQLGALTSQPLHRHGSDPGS
Sequence of hERG channel (Q12809 whole entry): as above
Sequence of hNK3 (P29371 whole entry): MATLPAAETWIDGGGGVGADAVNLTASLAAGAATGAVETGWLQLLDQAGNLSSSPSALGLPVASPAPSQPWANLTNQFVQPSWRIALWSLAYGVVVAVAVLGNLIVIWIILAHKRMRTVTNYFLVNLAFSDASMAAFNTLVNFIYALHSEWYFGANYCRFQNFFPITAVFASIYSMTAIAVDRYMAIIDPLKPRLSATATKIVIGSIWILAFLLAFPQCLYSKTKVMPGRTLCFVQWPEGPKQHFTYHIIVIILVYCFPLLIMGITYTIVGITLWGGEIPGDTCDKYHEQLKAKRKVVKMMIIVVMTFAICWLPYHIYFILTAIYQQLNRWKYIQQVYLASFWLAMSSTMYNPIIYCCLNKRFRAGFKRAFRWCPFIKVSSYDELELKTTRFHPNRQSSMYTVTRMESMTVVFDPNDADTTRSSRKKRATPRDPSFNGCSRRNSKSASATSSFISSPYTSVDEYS
Procedure for Caco-2 permeability: Human epithelial colorectal adenocarcinoma (Caco-2) cells (HTB-37) were cultured in T75 flasks using complete Dulbecco's Modified Eagles Medium (DMEM) containing 10% fetal bovine serum (FBS), 1% glutamine, 1% penicillin and 1% streptomycin, at 37° C. in a 5% CO2 atmosphere. Cells were passaged at 80-90% confluency using 0.05% trypsin-EDTA and the medium was changed every other day. Following this, the cells were trypsinized, suspended in medium and applied to a Millipore 96-well plate where they were cultured as monolayers at a density of 25,000 cells/well. The cells were incubated in a 37° C./5% CO2 incubator to allow cell attachment and proliferation. Media was changed every 2-3 days for 21 days when cells reached 100% confluency. […] Following centrifugation, the supernatant for donor and receiver side samples was analyzed by HPLC-MS/MS to determine peak area ratios.
Data was expressed as Papp (cm/s):
where VR is the volume of the receiver chamber. […] CD, mid is the calculated mid-point concentration of the test compound in the donor side, which is the mean value of the donor concentration at time 0 minute and the donor concentration at the end time point. […] Concentrations of the test compound were expressed as peak areas of the test compound.
Procedure for DOR: Binding affinity and selectivity of all synthesized ligands on the three opioid receptors were determined using the competitive radioligand binding assay.
The competition binding assay was conducted using the monoclonal mouse opioid receptors expressed in Chinese hamster ovary (CHO) cell lines (monoclonal human δ opioid receptor was used in the DOR assay). […] The bound radioligand was separated by filtration using the Brandel harvester. Specific (i.e., opioid receptor-related) binding at the MOR, KOR, and DOR was determined as the difference in binding obtained in the absence and presence of 5 μM naltrexone, U50,488, and SNC80, respectively. […]
Results were reported as mean values ±SEM. […] By using the Cheng-Prusoff equation Ki=IC50/[1+([L]/KD)], where [L] is the concentration of the competitor and KD is the KD of the radioligand, binding Ki values were determined from IC50 values.
The competition binding assay was conducted using the monoclonal mouse opioid mu or kappa receptor expressed in CHO cell lines (monoclonal human δ opioid receptor was used in the DOR assay). […] Specific (i.e., opioid receptor-related) binding to the MOR, KOR, and DOR was determined as the difference in binding obtained in the absence and presence of 5 μM of naltrexone, U50,488, and SNC80, respectively. […]

With `O=C(N[C@H]1CC[C@@]2(O)[C@H]3Cc4ccc(O)c5c4[C@@]2(CCN3CC2CC2)[C@H]1O5)c1nccs1` [NTZ, 17-Cyclopropylmethyl-3,14β-dihydroxy-4,5α-epoxy-6α-(2′-thiazolylcarboxamido)morphinan hydrochloride], in data set [1], the “side effect profiling, binding to panel” value is reported as “No significant binding up”. Moreover, the “Tail flick assay, antagonism of morphine's antinociceptive effect (in words)” value with male Swiss Webster mice [2] (mice, single dose 10 mg/kg) was “significantly antagonized morphine's antinociceptive”. Moreover, the “Tail flick assay (dose response) AD50” value in the data set with male Swiss Webster mice [2] (mice) is “The AD50 of VZMN283 was determined as 0.043 mg/kg”. In addition, the hM1 binding result on hM1 is recorded as “hM1 (53% at 10 uM)”. Besides, the “hERG channel testing (Eurofins)” value at hERG channel was 7.4 µM (Eurofins). Moreover, the Ki (usually a dissociation constant, usually derived from enzyme kinetics or from competition with a known ligand) is 0.25 ± 0.03 nM on MOR and 41.1 ± 3.58 nM at DOR. The efflux ratio (commonly a quotient of directional permeabilities that is used to spot active efflux) at 1 h, 10 μM in “Caco-2 permeability” is 2.5. Also, on hM2, the hM2 binding result was “hM2 (88% at 10 uM)”.
As for `O=C(N[C@H]1CC[C@@]2(O)[C@H]3Cc4ccc(O)c5c4[C@@]2(CCN3CC2CC2)[C@H]1O5)c1cccs1` [Example 1 compound 25, 17-Cyclopropylmethyl-3,14β-dihydroxy-4,5α-epoxy-6α-(2′-thienylcarboxamido)morphinan hydrochloride], the Ki amounted to 3.9 µM at hNK3, 8.4 µM at hM1, 6.4 µM on hNOP and 1.9 µM at hM2. For the same compound, the hNK3 binding on hNK3 (at 10 uM) is recorded as 56%. This compound also yielded a hM1 binding on hM1 of 53%. Further, in the data set on male Swiss Webster mice [3] (single dose 10 mg/kg), the “Tail flick assay, percentage maximum possible effect (% MPE)” value is listed as “effect (% MPE) of NAT (10 mg/kg) was 15.2”. The bioavailability (in general, the share of a dose that reaches the circulation, judged against a reference dose that is usually intravenous) in data set [4] was 19%. In addition, the “hERG channel testing (Eurofins)” value on hERG channel was 2.5 µM (Eurofins). Further, the IC50 (in general, the point on the concentration scale where inhibition reaches its midpoint) on MOR-CHO cells came out at 0.0267 µM. Also, the hNOP binding on hNOP was 60%. Moreover, at hM2, the hM2 binding is reported as 81%.
Turning to `O=C(N[C@H]1CCC2(O)C3Cc4ccc(O)c5c4[C@@]2(CCN3CC2CC2)[C@H]1O5)c1ccc[nH]1` (stereo partly drawn) [Example 1 compound 1, 17-Cyclopropylmethyl-3,14β-dihydroxy-4,5α-epoxy-6a-[(2′-pyrrolyl)carboxamido]morphinan hydrochloride], the “side effect profiling, binding to panel” value in data set [1] was “No significant binding up”. Further, the “Tail flick assay (dose response) AD50” value in the data set with male Swiss Webster mice [2] (mice) is listed as “The AD50 of NAY was determined as 4.71 (1.61- mg/kg”. In addition, the “Tail flick assay, anti-nociceptive effect (in words)” value in the data set with male Swiss Webster mice [3] (single dose, dose printed with the value) is “No anti-nociceptive effect up to 100 mg/kg”. Also, the bioavailability in [4] was found to be 59%. Besides, at Potassium channel hERG, affinity was put at a Ki of 8.6 µM and the hERG channel binding result was “Potassium channel hERG (52% at 10 uM),”. Moreover, at h5-HT1b, the Ki was determined as 0.482 µM and the h5-HT1b binding is 85%. Further, the “hERG channel testing (Eurofins)” value at hERG channel stood at 2.6 µM. At hERG channel (NIH), the “hERG channel testing (NIH)” value is 12.5 µM. On hNK1, this compound showed a hNK1 binding of 89%. At hNOP, this compound returned a Ki of 1.44 µM and a hNOP binding of 59%. At hM2, this compound displayed a Ki of 7.28 µM and a hM2 binding of 58%.
On to `O=C(N[C@H]1CC[C@@]2(O)[C@H]3Cc4ccc(O)c5c4[C@@]2(CCN3CC2CC2)[C@H]1O5)c1ccsc1` [Example 1 compound 31, 17-Cyclopropylmethyl-3,14β-dihydroxy-4,5α-epoxy-6α-(3′-thienylcarboxamido)morphinan hydrochloride], for which, in the data set with male Swiss Webster mice [2] (Example 1 compounds, 10 mg/kg s.c. in the presence of morphine (10 mg/kg)), the “antagonism of morphine's antinociceptive effect (in words)” value is listed as “significantly antagonized morphine's antinociceptive effect”. Besides, the “AD50 mg/kg (95% CL) to antagonize morphine mediated antinociception” value with male Swiss Webster mice [2] (Example 1 compounds, s.c., mice, morphine 10 mg/kg) turned out to be 1.51 mg/kg. Besides, the hM1 binding result at hM1 is recorded as “hM1 (62% at 10 uM)”. Besides, the bioavailability in data set [4] stood at 15%. Further, the hERG channel binding result at Potassium channel hERG is “hERG channel (58% at 10 uM)”. Further, on h5-HT1b, the h5-HT1b binding result was “h5-HT1b (98% at 10 uM)”. The “hERG channel testing (Eurofins)” value at hERG channel was 1.3 µM (Eurofins). Besides, the hNK1 binding result on hNK1 was “hNK1 (80% at 10 uM)”. Moreover, the IC50 on MOR-CHO cells is 0.0289 µM. Besides, the hM2 binding entry on hM2 is “hM2 (82% at 10 uM)”.

The values above are taken from patent publication US20250195504A1, “NALTREXAMINE DERIVATIVES BEARING 5-MEMBER HETEROCYCLIC RING SYSTEMS AND OPIOID RECEPTOR MODULATORS” (VIRGINIA COMMONWEALTH UNIVERSITY, priority 2022, published 2025).
